≈ marks a conversion by molar mass, not a printed value.
Key:
Assay in all cases: MIC by agar dilution, single strains
Assay type in all cases: cell-based
[1] = tested on: Staphylococcus aureus NCTC 11939 (SARM); conditions: NCTC11939, 22 hours of incubation, read-out: Minimum inhibitory concentration (MIC)
Protocol: (§1) Determining the minimum inhibitory concentrations (MIC). All the MICs were determined using an agar dilution method. This required use of a medium without a defined antagonist (peptone-free), prepared as described previously with the inclusion of 2% horse blood lysed with saponin, 25.0 μg/mL of NAD and 25.0 μg/mL of hemin [17]. The compounds tested were dissolved in sterile deionised water and incorporated into the agar medium in a concentration range of 0.0031 to 8.0 μg/mL (0.016 to 32 μg/mL for gram-positive bacteria). All the isolates were prepared at a density equivalent to 0.5 McFarland units in sterile deionised water using a densitometer (approximately 1.5×10^8 CFU/mL), and then diluted to 1 for 15. An aliquot of 1 μL of each diluted suspension was then placed onto plates with a multispot inoculator to give the final recommended inoculation of 10 000 CFU/spot. The MICs of fosfomycin were determined by the same method, except that the IsoSensitest medium (Oxoid, Basingstoke, United Kingdom) was used, plus 25.0 μg/mL of glucose-6-phosphate (Sigma, Poole, United Kingdom) and an extended range of fosfomycin concentrations. All the dishes (including the antimicrobial-free controls) were incubated for 22 hours at 37° C. All the tests were performed on at least two independent replicates in order to examine the reproducibility.

[2] = tested on: Staphylococcus aureus NCTC 6571; conditions: NCTC6571, 22 hours of incubation, read-out: Minimum inhibitory concentration (MIC)
Protocol: as §1

[3] = tested on: Salmonella typhimurium NCTC 74; conditions: Salmonella enterica, 22 hours of incubation, read-out: Minimum inhibitory concentration (MIC)
Protocol: as §1

[4] = tested on: Enterococcus faecalis NCTC 775; conditions: NCTC775, 22 hours of incubation, read-out: Minimum inhibitory concentration (MIC)
Protocol: as §1

[5] = tested on: Burkholderia cepacia ATCC 25416; conditions: ATCC25416, 22 hours of incubation, read-out: Minimum inhibitory concentration (MIC)
Protocol: as §1

[6] = tested on: Salmonella enteritidis NCTC 6676; conditions: Salmonella enterica, 22 hours of incubation, read-out: Minimum inhibitory concentration (MIC)
Protocol: as §1

[7] = tested on: Escherichia coli NCTC 10418; conditions: NCTC10418, 22 hours of incubation, read-out: Minimum inhibitory concentration (MIC)
Protocol: as §1

[8] = tested on: Serratia marcescens NCTC 10211; conditions: NCTC10211, 22 hours of incubation, read-out: Minimum inhibitory concentration (MIC)
Protocol: as §1

[9] = tested on: Pseudomonas aeruginosa NCTC 10662; conditions: NCTC10662, 22 hours of incubation, read-out: Minimum inhibitory concentration (MIC)
Protocol: as §1

[10] = tested on: Listeria monocytogenes NCTC 11994; conditions: NCTC11994, 22 hours of incubation, read-out: Minimum inhibitory concentration (MIC)
Protocol: as §1

[11] = tested on: Staphylococci epidermidis NCTC 11047; conditions: 22 hours of incubation, read-out: Minimum inhibitory concentration (MIC)
Protocol: as §1

[12] = tested on: Klebsiella pneumoniae NCTC 9528; conditions: NCTC9528, 22 hours of incubation, read-out: Minimum inhibitory concentration (MIC)
Protocol: as §1

[13] = tested on: Yersinia enterocolitica NCTC 11176; conditions: NCTC11176, 22 hours of incubation, read-out: Minimum inhibitory concentration (MIC)
Protocol: as §1

[14] = tested on: Providencia rettgeri NCTC 7475; conditions: NCTC7475, 22 hours of incubation, read-out: Minimum inhibitory concentration (MIC)
Protocol: as §1

[15] = tested on: Acinetobacter baumannii ATCC 19606; conditions: ATCC19606, 22 hours of incubation, read-out: Minimum inhibitory concentration (MIC)
Protocol: as §1

[16] = tested on: Enterobacter cloacae NCTC 11936; conditions: NCTC11936, 22 hours of incubation, read-out: Minimum inhibitory concentration (MIC)
Protocol: as §1

[17] = tested on: Escherichia coli NCTC 12241; conditions: NCTC12241, 22 hours of incubation, read-out: Minimum inhibitory concentration (MIC)
Protocol: as §1

[18] = tested on: Enterococcus faecium NCTC 7171; conditions: NCTC7171, 22 hours of incubation, read-out: Minimum inhibitory concentration (MIC)
Protocol: as §1

MIC [1]: > 8 µg/mL
MIC [2]: 1 µg/mL (≈ 3.05 µM)
MIC [3]: > 8 µg/mL
MIC [4]: 0.125 µg/mL (≈ 0.382 µM)
MIC [5]: > 8 µg/mL
MIC [6]: > 8 µg/mL
MIC [7]: 2 µg/mL (≈ 6.11 µM)
MIC [8]: 0.5 µg/mL (≈ 1.53 µM)
MIC [9]: > 8 µg/mL
MIC [10]: > 8 µg/mL
MIC [11]: 2 µg/mL (≈ 6.11 µM)
MIC [12]: 0.5 µg/mL (≈ 1.53 µM)
MIC [13]: 0.5 µg/mL (≈ 1.53 µM)
MIC [14]: > 8 µg/mL
MIC [15]: > 8 µg/mL
MIC [16]: > 8 µg/mL
MIC [17]: 2 µg/mL (≈ 6.11 µM)
MIC [18]: 4 µg/mL (≈ 12.2 µM)
Compound: CSCC[C@H](N)C(=O)N[C@@H](C)C(=O)NC(C)P(=O)(O)O (stereo partly drawn) [compound J, L-methionyl-L-alanyl-D/L fosfalin]

Reference: patent US9969758B2, “Antimicrobial compounds” (BIOMERIEUX, priority 2014, dated 2018)
